From patent US8642284B1, “Methods for identifying agents that alter NAD-dependent deacetylation activity of a SIR2 protein” (Massachusetts Institute of Technology, priority 1999, dated 2014)
“Also recorded” adds a separate entry of the source. Each block holds one compound with its values, some of them ahead of it.

Tests used:
mSir2α = biological target: T1, mSir2α (Mus musculus, UniProt Q923E4); assay: ADP-ribosylation assay, sensitivity of mSir2α to poly- and mono-ADP-ribosylation inhibitors (histone H2B, 32P-NAD); format: biochemical; conditions: for inhibition of the ADP-ribosylation activity of the mSir2α protein: 40, 200 and 1000 μM
T1 construct: ADP-ribosylase activity of bacterial recombinant full-length proteins of ySir2p and mSir2α was determined in in vitro assays; 6×His; made in house; host or cells: E. coli BL21 (DE3) pLysS with an extra copy of arginine tRNA gene, pET28a
T1 sequence (Q923E4 1-737): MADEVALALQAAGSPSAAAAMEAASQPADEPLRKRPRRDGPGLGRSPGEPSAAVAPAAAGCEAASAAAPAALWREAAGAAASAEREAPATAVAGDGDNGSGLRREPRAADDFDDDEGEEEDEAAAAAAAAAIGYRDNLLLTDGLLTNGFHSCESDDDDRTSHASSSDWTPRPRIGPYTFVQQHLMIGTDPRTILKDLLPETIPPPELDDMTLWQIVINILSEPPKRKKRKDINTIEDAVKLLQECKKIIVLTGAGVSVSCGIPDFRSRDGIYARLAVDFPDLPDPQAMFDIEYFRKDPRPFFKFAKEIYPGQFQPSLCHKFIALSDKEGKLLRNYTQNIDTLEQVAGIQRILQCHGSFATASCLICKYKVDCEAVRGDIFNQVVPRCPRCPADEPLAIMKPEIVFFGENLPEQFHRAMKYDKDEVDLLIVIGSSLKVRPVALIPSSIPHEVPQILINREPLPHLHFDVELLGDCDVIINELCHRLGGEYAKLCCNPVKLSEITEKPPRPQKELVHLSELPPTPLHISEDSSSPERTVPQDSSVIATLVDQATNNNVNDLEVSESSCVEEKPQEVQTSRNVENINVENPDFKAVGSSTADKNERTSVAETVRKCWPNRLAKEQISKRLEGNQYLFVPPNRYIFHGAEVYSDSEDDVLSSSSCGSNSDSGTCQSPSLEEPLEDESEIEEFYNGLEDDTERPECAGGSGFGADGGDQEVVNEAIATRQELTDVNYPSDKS
Procedure: The typical reaction was performed in 50 or 100 μl of the buffer containing 5 mM Tris-HCl [pH8.0 or 9.0], 4 mM MgCl2, 0.2 mM DTT, 1 μM cold β-NAD^+ (SIGMA®) and 8 μCi nicotinamide adenine dinucleotide 5′[α-^32P]triphosphate (NAD) as a donor of ADP-ribose (˜1000 Ci/mmol, Amersham Pharmacia Biotech). To check the sensitivity to poly- or mono-ADP-ribosylation inhibitors, 3-aminobenzamide (ICN Pharmaceuticals, CA), benzamide, novobiocin and coumermycin A1 (SIGMA®) were added to the reactions prior to adding Sir2 proteins, respectively. The wild type or mutant recombinant proteins (0.5-1 μg for ySir2p and 10 μg of mSir2α) were added with 4 μg of each histone purchased from Roche Molecular Biochemicals (Indianapolis, Ind.). For the peptide experiments, 5-10 μg of unacetylated or acetylated N-terminal tail peptides (amino acids 1-20) of H3 and H4 purchased from Upstate Biotechnology™ (Lake Placid, N.Y.) were used as substrates of the yeast and mouse Sir2 recombinant proteins.
To analyze histone modification, 25 μl of 100% trichloroacetic acid (TCA) solution was mixed to the reaction mixture and left on ice for 15 min. The protein precipitates were centrifuged at 4° C. and washed with 5 or 20% TCA solution twice. The pellets were dissolved in 15 μl of Leammli's sample buffer and boiled for 1.5 min. The proteins were electrophoresed in a 10-20% gradient SDS-PAGE gel. The gel was stained with COOMASSIE® Brilliant Blue R-250 (GibcoBRL Life Technologies™, Frederick, Md.) to check equal loading of histones, dried, and exposed to KODAK® X-OMAT film.
The sensitivity of the ADP-ribosylase activity of mSir2α to poly ADP-ribosylation inhibitors (3-aminobenzamide and benzamide) and mono-ADP-ribosylation inhibitors (novobiocin and coumermycin A1) was evaluated. (FIG. 4F).

Sir2p = biological target: T2, Sir2p (Saccharomyces cerevisiae, UniProt P06700); assay: NAD-dependent deacetylation of di-acetylated H3 peptide by recombinant yeast Sir2p (HPLC); format: biochemical; conditions: for function in the deacetylation of the H3 peptide by Sir2p: 1 mM NAD derivative; for inhibition of the deacetylase activity in a reaction with NAD: not shown
T2 construct: purified recombinant yeast (rSir2p) protein, mouse Sir2 (mSir2α) proteins and vector controls; 6×His; made in house; host or cells: E. coli BL21 (DE3), pET28a
Procedure: (§1) The typical reaction of Sir2 deacetylase activity was performed in 50 μl of buffer containing 50 mM Tris-HCl [pH 9.0], 4 mM MgCl2, 0.2 mM DTT, variable concentration of cold nicotinamide adenine dinucleotide (NAD) or NAD derivatives (SIGMA®, MO), 5-10 μg of the purified recombinant Sir2 proteins, and 10 μg of the histone H3 N-terminal tail peptide (amino acid 1-20) di-acetylated at positions 9 and 14 (Upstate Biotechnology™, NY). […] To detect the ADP-ribosylation activity, 8 μCi of NAD 5′-[α-^32P]triphosphate (˜1000 Ci/mmol, Amersham Pharmacia Biotech™, NJ) was added to the same reaction containing 1 μM cold NAD. Histone H3 protein (4 μg) (Roche Molecular Biochemicals™, IN) were used for this assay. All reaction mixtures were incubated at room temperature for 1 hr. Trichostatin A and coumermycin A1 (SIGMA™) were prepared in dimethylsulfoxide (DMSO, SIGMA®), and 5 μl of solvent or inhibitor was added to the reactions prior to adding Sir2 proteins.
(§2) After the incubation, the products were precipitated at −20° C. overnight by adding 50 μl of distilled water and 25 μl of 100% trichloroacetic acid (TCA) solution. For high pressure liquid chromatography (HPLC), the precipitates were reconstituted in 5% CH3CN and 0.1% trifluoroacetic acid (TFA) and run in the gradient concentration between 0.05% TFA and 0.043% TFA plus 80% CH3CN on Hewlett Packard Model 1100 HPLC system with 214TP52 column (VYDAC, CA). The chromatograms at the absorbance of 210 nm were digitally recorded and analyzed by Hewlett Packard ChemStation™ system (version A.06.03 [509]). Fractions of samples were collected every 1 min by Gilson™ Fraction Collector Model 203. Peptide sequencing was done by the Applied Biosystems PROCISE® 494 HT protein sequencing system. PTH amino acid chromatograms were recorded and analyzed by the ABI Model 610A2.1 data integration/analysis system.
The experiments employed purified recombinant Sir2p in a reaction with NAD and a peptide of the histone H3 amino-terminal tail (residues 1-20) di-acetylated at lysines 9 and 14. These lysines are hypoacetylated in silenced chromatin and mutations at these positions to glycine greatly reduce silencing in vivo (Thompson, J. S., et al., Nature 369: 245-247 (1994)). The products of a reaction containing 5 μg of recombinant yeast Sir2p (79 pmoles) (FIG. 8a), 10 μg of the H3 peptide (4.2 nmoles) increasing concentrations of NAD were analyzed s by high pressure liquid chromatography (HPLC).

[1] = tested on: mono-ADP-ribosyltransferases; conditions: literature value; read-out: reported IC50 concentration; cited from earlier work
[2] = tested on: di-acetylated H3 peptide (residues 1-20 acetylated on Lys9 and Lys14); assay: deacetylase activity of recombinant Sir2p and Sir2p core domain mutants on H3 peptide; format: biochemical; conditions: for NAD-dependent histone H3 deacetylase activity, of wild type activity: 5 μg recombinant protein
Procedure: as §1, §2
(§3) BL21 with SIR2 or the sir2 mutants subcloned into pET28a (NOVAGEN®) were induced with 1 mM IPTG for 1 hr. The recombinant proteins were purified by Nickel-NTA column under native condition. Ribosylation and deacetylation assays were performed using 1 μg of recombinant protein for the ribosylation assay and 5 μg for the deacetylation assay.
A set of mutations in highly conserved residues of the core domain of SIR2 were constructed by site-directed mutagenesis (FIG. 17a) and cloned into vectors, along with the wild type, to allow expression of the recombinant proteins in E. coli or expression of single-copy genes from the native SIR2 promoter in S. cerevisiae. These 6×his (SEQ ID NO: 39) tagged proteins were purified from E. coli by a Ni-NTA column (FIG. 17b) and analyzed for the NAD-dependent histone H3 deacetylase activity in an assay with a di-acetylated H3 peptide (residues 1-20 acetylated on Lys9 and Lys14) and 1 mM NAD. HPLC separation of the reaction products yields five peaks of which 1, 2, a portion of 3 and 4 are deacetylated species of peptide (FIG. 15).

histone H3 = assay: ADP-ribosyltransferase activity of Sir2p core domain mutants; format: biochemical; conditions: histone H3 substrate; relative to wild type
Procedure: as §1
Electron-spray mass spectroscopy (also referred to herein as mass spectroscopy) was done on the PE Sciex Model API365™ system. Matrix assisted laser desorption/ionization (MALDI) mass spectroscopy can also be used. The electron-spray mass spectroscopy data were analyzed by the BioMultiView Program™ (version 1.3.1). To detect the ADP-ribosylated intact H3 protein, the pellets were dissolved in 15 μl of Leammli sample buffer, boiled for 1.5 min and electrophoresed in a 10-20% gradient SDS-PAGE gel. The gel was stained with Coomassie Brilliant Blue to check equal loading of histones, dried, and exposed to KODAK® X-OMAT film. To analyze the ADP-ribosylated H3 peptides, 10 μl of each reaction mixture was spotted on a cellulose TLC plate (EM Science™, NJ). The chromatography was performed for 9-10 hrs in a TLC chamber containing the 65:5:3:2:29 mixture of isobutyric acid, pyridine, acetic acid, butanol and water (Scheidtmann, K. H., et al., J. Virol. 44:116-133 (1982)). The plate was dried and exposed to KODAK® X-OMAT film. The peptide spots were checked by ninhydrin staining.
as §3
The Sir 2 mutant proteins were also analyzed for ADP-ribosyltransferase activity using the histone H3 substrate, (FIG. 17c). […] The same pattern of activities was observed using a peptide of the N-terminal tail of histone H3 (not shown).

T2 sequence (P06700 whole entry): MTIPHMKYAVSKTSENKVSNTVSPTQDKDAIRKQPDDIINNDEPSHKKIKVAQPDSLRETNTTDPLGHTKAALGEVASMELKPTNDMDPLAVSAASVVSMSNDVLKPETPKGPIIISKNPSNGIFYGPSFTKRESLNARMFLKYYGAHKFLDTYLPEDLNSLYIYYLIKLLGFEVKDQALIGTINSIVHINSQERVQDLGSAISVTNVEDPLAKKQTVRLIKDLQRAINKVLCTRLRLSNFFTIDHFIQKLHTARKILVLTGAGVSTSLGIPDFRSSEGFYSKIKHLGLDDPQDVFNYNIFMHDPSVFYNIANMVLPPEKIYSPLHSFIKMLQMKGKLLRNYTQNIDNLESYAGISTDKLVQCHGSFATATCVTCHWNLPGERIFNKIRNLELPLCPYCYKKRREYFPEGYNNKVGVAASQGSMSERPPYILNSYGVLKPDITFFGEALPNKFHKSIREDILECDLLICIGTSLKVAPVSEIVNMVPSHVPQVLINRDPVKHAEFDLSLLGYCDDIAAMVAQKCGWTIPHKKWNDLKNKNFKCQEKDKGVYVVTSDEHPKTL

inhibition of the ADP-ribosylation activity of the mSir2α protein (mSir2α): did not inhibit
Compound: NC(=O)c1cccc(N)c1 [3-aminobenzamide]

Compound: NC(=O)C1=CN([C@@H]2O[C@H](COP(=O)(O)OP(=O)(O)OC[C@H]3O[C@@H](n4cnc5c(N)ncnc54)[C@H](O)[C@@H]3O)[C@@H](O)[C@H]2O)C=CC1 [NADH]
function in the deacetylation of the H3 peptide by Sir2p (Sir2p): functioned weakly
inhibition of the deacetylase activity in a reaction with NAD (Sir2p): neither NADH nor NADP significantly inhibited

Compound: NC(=O)C1=CN([C@@H]2O[C@H](COP(=O)(O)OP(=O)(O)OC[C@H]3O[C@@H](n4cnc5c(N)ncnc54)[C@H](OP(=O)(O)O)[C@@H]3O)[C@@H](O)[C@H]2O)C=CC1 [NADPH]
function in the deacetylation of the H3 peptide by Sir2p (Sir2p): did not function significantly

Compound: NC(=O)c1ccc[n+]([C@@H]2O[C@H](COP(=O)([O-])OP(=O)(O)OC[C@H]3O[C@@H](n4cnc5c(N)ncnc54)[C@H](OP(=O)(O)O)[C@@H]3O)[C@@H](O)[C@H]2O)c1 [NADP]
function in the deacetylation of the H3 peptide by Sir2p (Sir2p): did not function significantly
inhibition of the deacetylase activity in a reaction with NAD (Sir2p): neither NADH nor NADP significantly inhibited

Compound: CC(/C=C/C(=O)NO)=C\[C@@H](C)C(=O)c1ccc(N(C)C)cc1 [TSA, trichostatin A]
inhibition of deacetylation by Sir2p (Sir2p; 400 nM): does not affect; also recorded: totally incapable of inhibiting

Compound: NC(=O)c1ccccc1 [benzamide]
inhibition of the ADP-ribosylation activity of the mSir2α protein (mSir2α): did not inhibit

inhibition of ADP-ribosylation by mSir2α (mSir2α; 200 μM): strongly inhibited
Compound: CO[C@@H]1[C@@H](OC(N)=O)[C@@H](O)[C@H](Oc2ccc3c(O)c(NC(=O)c4ccc(O)c(CC=C(C)C)c4)c(=O)oc3c2C)OC1(C)C [novobiocin]
IC50 [1]: 370 µM

input peptide deacetylated ([2]; areas under HPLC peaks 1, 2 and 4, 1 mM NAD): at least 27%
acetyl lysines at positions 9 and 14 deacetylated ([2]; peak 4, Edmann degradation, in the presence of NAD): 23-27%
Compound: Sir2p: purified recombinant 6×His-tagged yeast Sir2 protein

Compound: mutant 261: 6×His tagged yeast Sir2p core domain mutant, Thr-261 mutated to alanine
NAD-dependent histone H3 deacetylase activity, of wild type activity ([2]; 1 mM NAD): 17%
ADP-ribosyltransferase activity (histone H3): 4%

Compound: mutant 270: 6×His tagged yeast Sir2p core domain mutant, Gly-270 mutated to alanine
NAD-dependent histone H3 deacetylase activity, of wild type activity ([2]; 1 mM NAD): 80%
ADP-ribosyltransferase activity (histone H3): 7%

Compound: mutant 271: 6×His tagged yeast Sir2p core domain mutant, Iso-271 mutated to alanine
NAD-dependent histone H3 deacetylase activity, of wild type activity ([2]; 1 mM NAD): 36%
ADP-ribosyltransferase activity (histone H3): 8%

Compound: mutant 275: 6×His tagged yeast Sir2p core domain mutant, Arg-275 mutated to alanine
NAD-dependent histone H3 deacetylase activity, of wild type activity ([2]; 1 mM NAD): 67%
ADP-ribosyltransferase activity (histone H3): about as active as wild type

Compound: mutant 345: 6×His tagged yeast Sir2p core domain mutant, Asn-345 mutated to alanine
NAD-dependent histone H3 deacetylase activity, of wild type activity ([2]; 1 mM NAD): inactive
ADP-ribosyltransferase activity (histone H3): completely inactive

Compound: mutant 347: 6×His tagged yeast Sir2p core domain mutant, Asp-347 mutated to alanine
NAD-dependent histone H3 deacetylase activity, of wild type activity ([2]; 1 mM NAD): inactive
ADP-ribosyltransferase activity (histone H3): completely inactive
